Test results published in ChEMBL document CHEMBL3044655, “QSAR studies of 7-methyljuglone derivatives as antitubercular agents” (Med Chem Res, 2012).

Test system: Mycobacterium tuberculosis
Assay: Antitubercular activity against Mycobacterium tuberculosis H37Rv by BACTEC method
Format: functional, organism-based

Row | Compound | IC50 (read-out: IC50) | IC50 (read-out: pIC50 (converted))
1 | CC(=O)Oc1cc(OC(C)=O)c2c(OC(C)=O)c(C)c(C)c(Cl)c2c1OC(C)=O | 7.7 nM | 7.7 nM
2 | COc1c(OC)c(OC(C)=O)c2c(OC(C)=O)cc(OC(C)=O)c(OC(C)=O)c2c1F | 3.9 nM | 3.86 nM
3 | CC(=O)Oc1cc(OC(C)=O)c2c(OC(C)=O)ccc(F)c2c1OC(C)=O | 7.9 nM | 7.97 nM
4 | CC(=O)Oc1cc(OC(C)=O)c2c(OC(C)=O)ccc(Cl)c2c1OC(C)=O | 12.4 nM | 12.2 nM
5 | CC(=O)Oc1cc(OC(C)=O)c2c(OC(C)=O)c(C)c(C)c(F)c2c1OC(C)=O | 3.3 nM | 3.34 nM
6 | Cc1ccc2c(c1O)C(=O)C=CC2=O | 3.1 nM | 3.1 nM
7 | CC(=O)Oc1cc(C)cc2c1C(=O)C=CC2=O | 6 nM | 6 nM
8 | CC(=O)Oc1cc(C)c(Cl)c2c1C(=O)C=CC2=O | 6.3 nM | 6.3 nM
9 | COc1cc(C)cc2c1C(=O)C=CC2=O | 5.8 nM | 5.8 nM
10 | CC(=O)Oc1cc(OC(C)=O)c2c(OC(C)=O)c(C)cc(Cl)c2c1OC(C)=O | 149 nM | 149 nM
11 | COc1cc(C)c(Cl)c2c1C(=O)C=CC2=O | 7.7 nM | 7.7 nM
12 | CCOc1c(C)cc(Cl)c2c1C(=O)C=CC2=O | 12.5 nM | 12.5 nM
13 | CCOc1cc(C)cc2c1C(=O)C=CC2=O | 6.3 nM | 6.3 nM
14 | CCOc1cc(C)c(Cl)c2c1C(=O)C=CC2=O | 36.1 nM | 36.1 nM
15 | CC(=O)Oc1cc(OC(C)=O)c2c(OC(C)=O)cc(C)cc2c1OC(C)=O | 17.2 nM | 17.2 nM
16 | COc1c(C)cc(Cl)c2c1C(=O)C=CC2=O | 8 nM | 8 nM
17 | CC(=O)Oc1cc(OC(C)=O)c2c(OC(C)=O)cc(C)c(Cl)c2c1OC(C)=O | 27.8 nM | 27.8 nM
18 | CC(=O)Oc1c(C)cc(Cl)c2c1C(=O)C=CC2=O | 21.1 nM | 21.1 nM
19 | Cc1cc(O)c2c(c1)C(=O)C(O)=CC2=O | 3.1 nM | 3.1 nM
20 | Cc1cc(O)c2c(c1Br)C(=O)C=CC2=O [5-BROMO-8-HYDROXY-6-METHYLNAPHTHALENE-1,4-DIONE] | 3.6 nM | 3.6 nM
21 | Cc1cc(O)c2c(c1Cl)C(=O)C=CC2=O [5-CHLORO-8-HYDROXY-6-METHYLNAPHTHALENE-1,4-DIONE] | 2.5 nM | 2.5 nM
22 | Cc1cc(O)c2c(c1F)C(=O)C=CC2=O [5-FLUORO-8-HYDROXY-6-METHYLNAPHTHALENE-1,4-DIONE] | 7.6 nM | 7.6 nM
23 | Cc1cc(Cl)c2c(c1O)C(=O)C=CC2=O [8-CHLORO-5-HYDROXY-6-METHYLNAPHTHALENE-1,4-DIONE] | 4.6 nM | 4.6 nM
24 | O=C1C=CC(=O)c2c(O)cccc21 [JUGLONE] | 1.2 nM | 1.2 nM
25 | Cc1cc(O)c2c(c1)C(=O)C=CC2=O [RAMENTACEONE] | 15.1 nM | 15.1 nM
